Series [1] in a line: Drug distribution of Compound 1 in mouse plasma, brain and perilymph after oral dosing. Type of series: in vivo. To be noted: 2 h after a 300 mg/kg p.o. dose. On the procedure:
Complete ADME and PK assessment of Compound 1 and Compound 2 at several doses by oral and intratympanic (IT) dosing in wild-type mice and in transgenic efflux-pump knock-out mice to benchmark compound exposure. […] Drug distribution of Compound 1 in a mouse was determined after dosing at 300 mg/kg.

The next series in a line: PAMPA permeability. The series is classed as in vitro ADME.
Another series deals with six-week-old B6 mice. Kind of series: Noise-induced hearing loss in mice after moderate noise exposure (ABR thresholds, IHC synaptic ribbons), orally administered compound. The series is classed as in vivo, mouse. The source says:
FIGS. 9A-9C depict that Compound 1 administration is protective against mid- to high-frequency hearing loss and synaptic ribbon loss. (A) Threshold elevation two-weeks after moderate noise exposure is reduced in six-week-old B6 mice treated with orally administered Compound 1 either prior or after noise exposure. […] (C) Quantification of paired synaptic ribbons in mice two weeks after exposure to moderate noise given vehicle (top row) and Compound 1 (bottom row). (n=4; scale bar=[…]).
Inducing NIHL in mice. To induce NIHL, mice are exposed to octave band noise (OBN) with a center frequency of 10 kHz for 2 hours using a method adapted from Kujawa, Sharon G., and M. Charles Liberman. “Adding insult to injury: cochlear nerve degeneration after “temporary” noise-induced hearing loss.” Journal of Neuroscience 29.45 (2009): 14077-14085., which is incorporated herein by reference in its entirety.
There has been increasing interest in AMPK activation in human disease. […] The activation pathways and downstream targets of AMPK differ depending on its subcellular localization (FIG. 8C). In response to energy stress, LKB1 activates cytoplasmic and lysosomal AMPK in an axin-dependent manner as exemplified by phosphorylation of the AMPK target ACC1, whereas it activates mitochondrial AMPK in an axin-independent manner as exemplified by phosphorylation of the AMPK target ACC2. […]

A further series has as its system AMPK. Kind of series: AMPK activation in inner and outer hair cells of treated mice. The series is classed as in vivo, mouse. The source says: There has been increasing interest in AMPK activation in human disease. […] The activation pathways and downstream targets of AMPK differ depending on its subcellular localization (FIG. 8C). In response to energy stress, LKB1 activates cytoplasmic and lysosomal AMPK in an axin-dependent manner as exemplified by phosphorylation of the AMPK target ACC1, whereas it activates mitochondrial AMPK in an axin-independent manner as exemplified by phosphorylation of the AMPK target ACC2. By contrast, activation of nuclear AMPK in response to elevated intracellular Ca^2+ levels are mediated by CaMKK2. For the observed noise-induced activation of nuclear AMPK in IHCs, in the absence of which (γ2 deficiency) mice suffer greater synaptic ribbon morphometric changes and NIHL (FIGS. 3A-3D & 4A-4E), AMPK may be activated by CaMKK2, especially given that physiological sound relay to the auditory nerve in IHCs involves transient Ca2+ elevation.

Series [2] can be described thus: Concentration in perilymph and plasma following intratympanic dosing in two mouse strains (LC-MS/MS). Type of series: in vivo, C57BL/6J and FVB mice. To be noted: 5 μL of 5 mg/mL in 5% DMSO-95% Poloxamer 407 solution, all plasma data points except one. On the procedure: Compound 1 was dissolved DMSO and added to a cold solution of 20% Poloxamer 407 in PBS. The mixture was vortexed to give a solution of final solution of 5 mg/mL Compound 1 in 5% DMSO-95% Poloxamer 407 solution.
In fully anesthetized mice, the mouse bulla was reached through the digastric and sternocleidomastoid muscles and a 27-gauge needle was used to drill an opening adjacent to the round window niche. 5 μL of Compound 1 in the cold 5%/95% DMSO/Poloxamer 407 hydrogel vehicle was introduced by intratympanic injection in both C57BL/6J and FVB mice. Upon reaching the desired time point, mice were euthanized under deep anesthesia. Blood from the heart was collected to determine drug plasma levels. The mouse bulla was re-exposed to verify the injection site and all possible drug remaining were removed from inner ear before collecting the perilymph from the apical side of the cochlea.
Drug levels were measured using LC-MS/MS (Q-trap) with 500 nM indomethacin as the internal standard. Perilymph samples were diluted 10× in plasma. An aliquot of 1 μL sample was protein precipitated with 50 μL IS, the mixture was vortex-mixed well and centrifuged at 3600 rpm for 10 min, Room Temp. 10 μL supernatant was injected for LC-MS/MS analysis. […]

The nature of series [3]: Test article handling / stability information. Type of series: physicochemical. The settings on record: room temp.
For series [4] the following is noted: analysis of known AMPK activators; cited from earlier work.
The conditions of series [5]: preclinical data; cited from earlier work.

Where two headings read alike, the source gives them in different places.

Here are results for one molecule from patent US20240180882A1, “COMPOUNDS FOR PROTECTION OF NOISE-INDUCED HEARING-LOSS” (The Regents of the University of California, priority 2021, published 2024).

Broadly, the Papp is the rate of passage across a membrane or cell layer, normalised by area and donor concentration. The low end stands for poor permeation, the high end for ready permeation.

For `O[C@@H]1CO[C@H]2[C@@H]1OC[C@H]2Oc1nc2nc(-c3ccc(-c4ccccc4)cc3)c(Cl)cc2[nH]1` [Compound 1, (3R,3aR,6R,6aR)-6-((5-([1,1′-biphenyl]-4-yl)-6-chloro-3H-imidazo[4,5-b]pyridin-2-yl)oxy)hexahydrofuro[3,2-b]furan-3-ol], the concentration at 2 h in series [1] (brain, read-out: Brain level of Compound 1) stood at 45 ± 5 µM; in series [1] (perilymph, read-out: Perilymph level of Compound 1) it was 0.87 ± 0.04 µM; in series [1] (plasma, read-out: Plasma level of Compound 1) it was 443 ± 64 µM. This molecule registered a Papp in the series “PAMPA permeability” of 24 ×10⁻⁶ cm/s. Also, the “ABR threshold elevation two weeks after moderate noise exposure” value in the series on six-week-old B6 mice (orally administered either prior or after noise exposure, six-week-old B6 mice) is given as “reduced”. Also, the “IHC (32 kHz region) synaptic ribbon counts after moderate noise exposure” value with six-week-old B6 mice (two weeks after exposure to moderate noise, vs vehicle, n=4) is listed as “preservation”. Also, the “AMPK activation in hair cells” value in the series with AMPK is “nuclear and cytoplasmic activation of AMPK in both inner and outer hair cells”. In addition, in series [2], the “Plasma concentration following intratympanic dosing” value was “below the level of detection”. Also, the “Stability of test article” value in series [3] is reported as “Compound 1 stable at room temp”. In series [4], the “Passive permeability (in words)” value is on record as “high passive permeability”. For the same molecule, the “Effect on glucose homeostasis” value in series [5] was “improve glucose homeostasis”.
